Laboratory results: PubChem BioAssay (NCI)
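Values below derive from 48-hour exposures of cells grown in 96-well plates, with endpoints linearly interpolated between the two concentrations bracketing the appropriate inhibition level. Definition used: TGI = concentration required for complete inhibition of growth.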

Columns and labels:
Assay in all cases: inhibition of tumour cell growth, NCI panel, 48 h
RPMI-8226 leukemia = tested on: RPMI-8226 leukemia
LOX IMVI melanoma = tested on: LOX IMVI melanoma
HCT-116 colon = tested on: HCT-116 colon
HL-60(TB) leukemia = tested on: HL-60(TB) leukemia
HT29 colon = tested on: HT29 colon
EKVX NSCLC = tested on: EKVX NSCLC
SK-OV-3 ovarian = tested on: SK-OV-3 ovarian
TK-10 renal = tested on: TK-10 renal
NCI-H460 lung = tested on: NCI-H460 lung
KM12 colon = tested on: KM12 colon
UO-31 renal = tested on: UO-31 renal
SK-MEL-2 melanoma = tested on: SK-MEL-2 melanoma
UACC-62 melanoma = tested on: UACC-62 melanoma
SR leukemia = tested on: SR leukemia
HCC-2998 colon = tested on: HCC-2998 colon
RXF-631 renal = tested on: RXF-631 renal
SF-268 CNS = tested on: SF-268 CNS
HCT-15 colon = tested on: HCT-15 colon
ACHN renal = tested on: ACHN renal
COLO 205 colon = tested on: COLO 205 colon
DU-145 prostate = tested on: DU-145 prostate
SF-295 CNS = tested on: SF-295 CNS
CCRF-CEM leukemia = tested on: CCRF-CEM leukemia
OVCAR-4 ovarian = tested on: OVCAR-4 ovarian
SN12C renal = tested on: SN12C renal
M14 melanoma = tested on: M14 melanoma
CAKI-1 renal = tested on: CAKI-1 renal
786-0 renal = tested on: 786-0 renal
SK-MEL-28 melanoma = tested on: SK-MEL-28 melanoma
LXFL 529 NSCLC = tested on: LXFL 529 NSCLC
MOLT-4 leukemia = tested on: MOLT-4 leukemia
HOP-18 NSCLC = tested on: HOP-18 NSCLC
DLD-1 colon = tested on: DLD-1 colon
SK-MEL-5 melanoma = tested on: SK-MEL-5 melanoma
MALME-3M melanoma = tested on: MALME-3M melanoma
RXF 393 renal = tested on: RXF 393 renal
KM20L2 colon = tested on: KM20L2 colon
SNB-75 CNS = tested on: SNB-75 CNS
K-562 leukemia = tested on: K-562 leukemia
U251 CNS = tested on: U251 CNS
A549 NSCLC = tested on: A549 NSCLC
SW-620 colon = tested on: SW-620 colon
NCI-H226 lung = tested on: NCI-H226 lung
A498 renal = tested on: A498 renal
SNB-19 CNS = tested on: SNB-19 CNS
HOP-92 NSCLC = tested on: HOP-92 NSCLC
OVCAR-5 ovarian = tested on: OVCAR-5 ovarian
NCI-H23 lung = tested on: NCI-H23 lung
OVCAR-3 ovarian = tested on: OVCAR-3 ovarian
OVCAR-8 ovarian = tested on: OVCAR-8 ovarian
UACC-257 melanoma = tested on: UACC-257 melanoma
NCI-H522 lung = tested on: NCI-H522 lung
XF 498 CNS = tested on: XF 498 CNS
SF-539 CNS = tested on: SF-539 CNS
IGROV1 ovarian = tested on: IGROV1 ovarian
DMS 114 small cell lung = tested on: DMS 114 small cell lung
SNB-78 CNS = tested on: SNB-78 CNS
HOP-62 NSCLC = tested on: HOP-62 NSCLC
DMS 273 small cell lung = tested on: DMS 273 small cell lung
M19-MEL melanoma = tested on: M19-MEL melanoma

`Cc1ccc(S(=O)(=O)N/N=C/c2oc(-c3cccc([N+](=O)[O-])c3)c(-c3cccc([N+](=O)[O-])c3)c2[N+](=O)[O-])cc1` showed a TGI (RPMI-8226 leukemia) of 67.1 µM, a TGI (LOX IMVI melanoma) of 33.5 µM and a TGI (HCT-116 colon) of over 100 µM. It also gave a TGI (HL-60(TB) leukemia) of 57.1 µM, a TGI (HT29 colon) of over 100 µM and a TGI (EKVX NSCLC) of over 100 µM. The TGI (SK-OV-3 ovarian) was 68.5 µM, the TGI (TK-10 renal) was over 100 µM and the TGI (NCI-H460 lung) was over 100 µM. The TGI (KM12 colon) was over 100 µM, the TGI (UO-31 renal) was 32.3 µM and the TGI (SK-MEL-2 melanoma) was 76.9 µM. The TGI (UACC-62 melanoma) was 49.3 µM, the TGI (SR leukemia) was 45.8 µM and the TGI (HCC-2998 colon) was over 100 µM. For the same compound, the TGI (RXF-631 renal) was over 100 µM, the TGI (SF-268 CNS) was 66.7 µM and the TGI (HCT-15 colon) was over 100 µM. It also gave a TGI (ACHN renal) of over 100 µM, a TGI (COLO 205 colon) of over 100 µM and a TGI (DU-145 prostate) of over 100 µM. It also gave a TGI (SF-295 CNS) of over 100 µM, a TGI (CCRF-CEM leukemia) of 56.8 µM and a TGI (OVCAR-4 ovarian) of over 100 µM. It also gave a TGI (SN12C renal) of over 100 µM, a TGI (M14 melanoma) of over 100 µM and a TGI (CAKI-1 renal) of over 100 µM. It also gave a TGI (786-0 renal) of over 100 µM, a TGI (SK-MEL-28 melanoma) of over 100 µM and a TGI (LXFL 529 NSCLC) of over 100 µM. The TGI (MOLT-4 leukemia) was 77.9 µM, the TGI (HOP-18 NSCLC) was over 100 µM and the TGI (DLD-1 colon) was over 100 µM. For the same compound, the TGI (SK-MEL-5 melanoma) was over 100 µM, the TGI (MALME-3M melanoma) was over 100 µM and the TGI (RXF 393 renal) was 90.1 µM. For the same compound, the TGI (KM20L2 colon) was over 100 µM, the TGI (SNB-75 CNS) was over 100 µM and the TGI (K-562 leukemia) was 69.9 µM. It also gave a TGI (U251 CNS) of over 100 µM, a TGI (A549 NSCLC) of over 100 µM and a TGI (SW-620 colon) of over 100 µM. For the same compound, the TGI (NCI-H226 lung) was over 100 µM, the TGI (A498 renal) was over 100 µM and the TGI (SNB-19 CNS) was over 100 µM. For the same compound, the TGI (HOP-92 NSCLC) was over 100 µM, the TGI (OVCAR-5 ovarian) was over 100 µM and the TGI (NCI-H23 lung) was over 100 µM. The TGI (OVCAR-3 ovarian) was over 100 µM, the TGI (OVCAR-8 ovarian) was over 100 µM and the TGI (UACC-257 melanoma) was over 100 µM. The TGI (NCI-H522 lung) was 28.4 µM, the TGI (XF 498 CNS) was over 100 µM and the TGI (SF-539 CNS) was over 100 µM. For the same compound, the TGI (IGROV1 ovarian) was 91.2 µM.

`O=C(CSc1nnc(-c2ccc(N=Cc3ccc(Cl)cc3)cc2)o1)Nc1ccccc1Cl` was tested, and the TGI (RPMI-8226 leukemia) was over 100 µM, the TGI (LOX IMVI melanoma) was over 100 µM and the TGI (DMS 114 small cell lung) was over 100 µM. For the same compound, the TGI (HCT-116 colon) was over 100 µM, the TGI (HL-60(TB) leukemia) was over 100 µM and the TGI (HT29 colon) was over 100 µM. For the same compound, the TGI (EKVX NSCLC) was over 100 µM, the TGI (SK-OV-3 ovarian) was over 100 µM and the TGI (TK-10 renal) was over 100 µM. The TGI (NCI-H460 lung) was over 100 µM, the TGI (KM12 colon) was over 100 µM and the TGI (UO-31 renal) was over 100 µM. For the same compound, the TGI (SK-MEL-2 melanoma) was over 100 µM, the TGI (UACC-62 melanoma) was over 100 µM and the TGI (SR leukemia) was over 100 µM. The TGI (SF-268 CNS) was over 100 µM, the TGI (SNB-78 CNS) was over 100 µM and the TGI (HCT-15 colon) was over 100 µM. For the same compound, the TGI (ACHN renal) was over 100 µM, the TGI (COLO 205 colon) was over 100 µM and the TGI (SF-295 CNS) was over 100 µM. For the same compound, the TGI (CCRF-CEM leukemia) was over 100 µM, the TGI (OVCAR-4 ovarian) was over 100 µM and the TGI (HOP-62 NSCLC) was over 100 µM. It also gave a TGI (M14 melanoma) of over 100 µM, a TGI (786-0 renal) of over 100 µM and a TGI (SK-MEL-28 melanoma) of over 100 µM. It also gave a TGI (LXFL 529 NSCLC) of over 100 µM, a TGI (MOLT-4 leukemia) of over 100 µM and a TGI (DMS 273 small cell lung) of over 100 µM. It also gave a TGI (HOP-18 NSCLC) of over 100 µM, a TGI (SK-MEL-5 melanoma) of over 100 µM and a TGI (MALME-3M melanoma) of over 100 µM. The TGI (RXF 393 renal) was over 100 µM, the TGI (KM20L2 colon) was over 100 µM and the TGI (SNB-75 CNS) was over 100 µM. The TGI (K-562 leukemia) was over 100 µM, the TGI (U251 CNS) was over 100 µM and the TGI (A549 NSCLC) was over 100 µM. For the same compound, the TGI (SW-620 colon) was over 100 µM, the TGI (NCI-H226 lung) was over 100 µM and the TGI (SNB-19 CNS) was over 100 µM. For the same compound, the TGI (NCI-H23 lung) was over 100 µM, the TGI (OVCAR-8 ovarian) was over 100 µM and the TGI (UACC-257 melanoma) was over 100 µM. For the same compound, the TGI (NCI-H522 lung) was over 100 µM, the TGI (XF 498 CNS) was over 100 µM and the TGI (M19-MEL melanoma) was over 100 µM.

For `C[N+]1(C)CCCC1C(=O)[O-]` (stereo not drawn), the TGI (RPMI-8226 leukemia) was over 100 µM, the TGI (LOX IMVI melanoma) was over 100 µM and the TGI (DMS 114 small cell lung) was over 100 µM. The TGI (HCT-116 colon) was over 100 µM, the TGI (HL-60(TB) leukemia) was over 100 µM and the TGI (HT29 colon) was over 100 µM. The TGI (EKVX NSCLC) was over 100 µM, the TGI (SK-OV-3 ovarian) was over 100 µM and the TGI (TK-10 renal) was over 100 µM. For the same compound, the TGI (NCI-H460 lung) was over 100 µM, the TGI (KM12 colon) was over 100 µM and the TGI (UO-31 renal) was over 100 µM. For the same compound, the TGI (SK-MEL-2 melanoma) was over 100 µM, the TGI (UACC-62 melanoma) was over 100 µM and the TGI (SR leukemia) was over 100 µM. The TGI (HCC-2998 colon) was over 100 µM, the TGI (SF-268 CNS) was over 100 µM and the TGI (SNB-78 CNS) was over 100 µM. For the same compound, the TGI (HCT-15 colon) was over 100 µM, the TGI (ACHN renal) was over 100 µM and the TGI (COLO 205 colon) was over 100 µM. The TGI (SF-295 CNS) was over 100 µM, the TGI (CCRF-CEM leukemia) was over 100 µM and the TGI (OVCAR-4 ovarian) was over 100 µM. The TGI (SN12C renal) was over 100 µM, the TGI (HOP-62 NSCLC) was over 100 µM and the TGI (M14 melanoma) was over 100 µM. For the same compound, the TGI (786-0 renal) was over 100 µM, the TGI (SK-MEL-28 melanoma) was over 100 µM and the TGI (LXFL 529 NSCLC) was over 100 µM. For the same compound, the TGI (MOLT-4 leukemia) was over 100 µM, the TGI (DMS 273 small cell lung) was over 100 µM and the TGI (HOP-18 NSCLC) was over 100 µM. The TGI (DLD-1 colon) was over 100 µM, the TGI (MALME-3M melanoma) was over 100 µM and the TGI (RXF 393 renal) was over 100 µM. It also gave a TGI (KM20L2 colon) of over 100 µM, a TGI (SNB-75 CNS) of over 100 µM and a TGI (K-562 leukemia) of over 100 µM. The TGI (U251 CNS) was over 100 µM, the TGI (A549 NSCLC) was over 100 µM and the TGI (SW-620 colon) was over 100 µM. For the same compound, the TGI (NCI-H226 lung) was over 100 µM, the TGI (A498 renal) was over 100 µM and the TGI (SNB-19 CNS) was over 100 µM. It also gave a TGI (HOP-92 NSCLC) of over 100 µM, a TGI (NCI-H23 lung) of over 100 µM and a TGI (OVCAR-3 ovarian) of over 100 µM. The TGI (OVCAR-8 ovarian) was over 100 µM, the TGI (UACC-257 melanoma) was over 100 µM and the TGI (NCI-H522 lung) was over 100 µM. For the same compound, the TGI (XF 498 CNS) was over 100 µM, the TGI (SF-539 CNS) was over 100 µM and the TGI (M19-MEL melanoma) was over 100 µM. For the same compound, the TGI (IGROV1 ovarian) was over 100 µM.
